According to patent publication US4313937A, “Method for producing long-lasting analgesic effects of β-endorphin” (priority 1980, dated 1982):
Values joined by “and” are separate entries in the source; they are usually repeats but may differ in a detail not shown here. Identical values can stand only once. “Also recorded” adds a separate entry of the source.

Experiments:
patient = conditions: infusion into the cerebral ventricle; cited from earlier work
[1] = test system: patients with chronic intractable pain; assay: Clinical test of analgesia in patients with chronic intractable pain secondary to metastatic malignancies (visual pain scale); format: in vivo, man
Experimental: Twenty-three patients with chronic intractable pain in the back, chest, abdomen, rectum and/or thigh regions secondary to metastatic malignancies were selected for this test.
The protocol was explained to them, and informed consent was obtained. Systemic analgesics were withheld for at least 5 hours before administration of β-endorphin. Neurological examinations and electroencephalography (EEG) were performed immediately before and every 2 hours after the injection of β-endorphin. The visual pain scale ("Adv. Neurol.", 1974, 4, 281-283) was explained to each patient; baseline pain intensity was determined 30 min. before the injection.
β-Endorphin acetate used here was prepared to high purity according to the method described in the Biochem. Biophys. Res. Commun., 74, 248-255 (1977). β-Endorphin acetate, 3 mg (equivalent to 2.5 mg of dried free β-endorphin) with 150 mg of glucose and 3 ml of distilled water (in 8 patients, cases 1-8) or with 3 ml of physiological saline and no glucose (in 7 patients, cases 9-15), was injected into the subarachnoid space (cases 1-14) or epidural space (case 15) of the spinal cord by lumbar puncture between the 2nd and 3rd lumbar vertebrae. After the injection of β-endorphin acetate, the intensity of pain, vital signs, central-nervous-system examination, EEG, electrocardiogram (ECG), pulse rate, respiratory rate, blood-gas analysis, and body temperature were monitored. Simple behavioural parameters were also observed.
In a single-randomization design, three physicians administered successively β-endorphin acetate injection or physiological saline (as a placebo) in random order to 5 patients (cases 9-12, 14). All other patients received only β-endorphin acetate, without placebo.
For the purpose of comparison, β-endorphin acetate was injected intramuscularly (cases 18-20), intravenously (cases 16 and 17), and intracerebrally (cases 20-23).
In this test, all the injections of β-endorphin to patients were sterilized through Millipore filter.

[2] = test system: man and laboratory animals; conditions: intravenously or intramuscularly administered; cited from earlier work
[3] = epidural space, 3 mg acetate in 3 ml physiological saline, case 15
[4] = intracerebral (cerebral ventricle), comparison, cases 21-23
[5] = subarachnoid space, 3 mg acetate in 3 ml physiological saline, single patients (cases 9-14)
[6] = subarachnoid space, 3 mg acetate with 150 mg glucose in 3 ml distilled water, single patients (cases 1-8)

β-Endorphin acetate
side effects (patient): induces various undersirable side effects
duration of drowsiness after injection ([1]; 12 of 15 patients, subarachnoid or epidural space): 1 to 4 h
time until pain disappeared after the injection ([1]; 13 of the 15 patients, subarachnoid or epidural space): 1 to 5 min
relief of pain reported ([1]; all 15 patients, subarachnoid or epidural space of the spinal cord): complete relief of pain
arousability ([1]; all the patients, subarachnoid or epidural space): easily arousable by verbal stimuli
duration of sleep after injection ([1]; case No. 5 (in 40 min. after injection) and case No. 7 (in 10 min. after injection)): 80 min and 110 min
perception of venepuncture and light touch ([1]; during the period of pain relief): remained intact
abnormalities in the ECG or EEG ([1]; during the procedure): No abnormalities
Pain relief after β-endorphin, Duration [1, 3]: 68 h
Pain relief after β-endorphin, Onset [1, 3]: 2 min
Remarks ([1]; epidural space, 3 mg acetate in physiological saline, case 15): Sleep
duration of relief of pain ([1]; injected into cerebral ventricle, all 3 patients): 8 to 12 h
Pain relief after β-endorphin, Duration [1, 4]: 10 h and 12 h and 8 h
Pain relief after β-endorphin, Onset [1, 4]: 3 min and 4 min
analgesic effect ([1]; intramuscular, 2 of 3 patients): no analgesic effect
analgesic effect ([1]; intravenous, one of 2 patients): no analgesic effect
duration of analgesic effect ([1]; intravenous, the other of 2 patients, considered to be placebo effect): one
duration of pain relief after the injection, average ([1]; subarachnoid or epidural space): 33.4 h
signs of respiratory depression, arterial blood-gas changes, nausea, hypotension, hypothermia, catatonia, or muscle rigidity ([1]; subarachnoid or epidural space): No signs
discomfort caused by the injection ([1]; subarachnoid or epidural space, all the patients): no discomfort
Pain relief after β-endorphin, Duration [1, 5]: 24 h. and 25 h. and 47 h. and 731/2 and 51 h. and 221/2
Pain relief after β-endorphin, Onset [1, 5]: 16 min and 2 min
Remarks ([1]; subarachnoid space, 3 mg acetate in physiological saline, single patients (cases 9-14)): Sleep; also recorded: Euphoria; also recorded: somnolence
Pain relief after β-endorphin, Duration [1, 6]: 27 h. and 271/2 and 261/2 and 291/2 and 24 h. and 36 h. and 251/2 and 281/2
Pain relief after β-endorphin, Onset [1, 6]: 5 min and 4 min and 1 min and 2 min
Remarks ([1]; subarachnoid space, 3 mg acetate with glucose, single patients (cases 1-8)): Somnolence; also recorded: Sleep; also recorded: somniloquy; also recorded: Euphoria
duration of sleep after injection ([1]; the other 6 of the 8 patients who slept): 60 to 120 min
analgesia [2]: no statistically significant analgesia
